This is an account of results in ChEMBL document CHEMBL4304757, “Synthetic heterocyclic candidates as promising α-glucosidase inhibitors: An overview” (Eur J Med Chem, 2019).

Molecules are shown by their SMILES.

What is called IC50 is the concentration that inhibits the measured activity by half. A lower IC50 goes with greater potency.

The first test addresses T1, Alpha glucosidase (Homo sapiens, UniProt O43451+P10253+P14410+Q2M2H8). The test is described as follows: Inhibition of alpha-glucosidase (unknown origin) using p-nitro phenyl glucopyranoside as substrate preincubated for 10 mins followed by substrate addition measured after 30 mins. In kind it is protein assay.
As for `O=C(N/N=C/c1cc(O)ccc1O)c1nc(-c2cc3ccccc3oc2=O)cs1`, the IC50 lay within 6.2 to 81 µM.

Target in another test: not listed separately
The test is described as follows: Inhibition of yeast alpha-glucosidase using p-nitrophenyl-alpha-d-glucopyranoside as substrate preincubated for 5 mins followed by substrate addition measured after 5 mins. Also on record: species or system Saccharomyces cerevisiae.
In turn, `O=[N+]([O-])c1ccc2cc(-c3nnc(-c4ccccc4O)o3)oc2c1` had an IC50 of 12 to 162 µM.
The same measure, in the same setting: as for `O=[N+]([O-])c1ccc2cc(-c3nnc(-c4ccccc4F)o3)oc2c1`, the figure is 12 to 162 µM.
In turn, `O=[N+]([O-])c1ccc2cc(-c3nnc(-c4cccc(F)c4)o3)oc2c1` returned an IC50 of 12 to 162 µM.
Same read-out and setting: as for `COc1ccc(-c2nnc(-c3cc4ccc([N+](=O)[O-])cc4o3)o2)cc1O`, the figure is 12 to 162 µM; as for `COc1ccc(-c2nnc(-c3cc4ccc([N+](=O)[O-])cc4o3)o2)c(O)c1`, 12 to 162 µM.
For `O=[N+]([O-])c1ccc2cc(-c3nnc(-c4cc(O)ccc4O)o3)oc2c1`, the IC50 lay in the range of 12 to 162 µM.
Same read-out and setting: the figure for `COc1ccc(O)c(-c2nnc(-c3cc4ccc([N+](=O)[O-])cc4o3)o2)c1` is 12 to 162 µM.
Turning to `O=[N+]([O-])c1ccc2cc(-c3nnc(-c4cccc(O)c4)o3)oc2c1`, the IC50 lay within 12 to 162 µM.
On the same count and under the same terms, as for `O=[N+]([O-])c1ccc2cc(-c3nnc(-c4cccc(O)c4O)o3)oc2c1`, the figure is 12 µM; as for `O=[N+]([O-])c1ccc2cc(-c3nnc(-c4ccc(Cl)cc4)o3)oc2c1`, 12 to 162 µM; as for `O=[N+]([O-])c1ccc2cc(-c3nnc(-c4ccc(F)cc4)o3)oc2c1`, 12 to 162 µM.
Same read-out and setting: the figure for `O=[N+]([O-])c1ccc2cc(-c3nnc(-c4ccc(O)cc4O)o3)oc2c1` is 12 to 162 µM; for `O=[N+]([O-])c1ccc2cc(-c3nnc(-c4ccccc4Cl)o3)oc2c1` it is 12 to 162 µM; for `O=[N+]([O-])c1ccc2cc(-c3nnc(-c4cccc(Cl)c4)o3)oc2c1` it is 12 to 162 µM.
Compound `O=[N+]([O-])c1ccc2cc(-c3nnc(-c4ccc(O)cc4)o3)oc2c1` showed an IC50 of 12 to 162 µM.
In turn, `O=[N+]([O-])c1ccc2cc(-c3nnc(-c4cc(O)cc(O)c4)o3)oc2c1` returned an IC50 of 12 to 162 µM.
The same measure, in the same setting: the figure for `O=[N+]([O-])c1ccc2cc(-c3nnc(-c4ccc(O)c(O)c4)o3)oc2c1` is 12 to 162 µM.

Another test addresses T1, Alpha glucosidase. The test is described as follows: Inhibition of alpha-glucosidase (unknown origin) using pNPG as substrate preincubated for 10 mins followed by substrate addition measured after 30 mins. In kind it is protein assay.
`O=C(N/N=C/c1ccc(O)c(O)c1)c1cc2ccccc2[nH]1` came in with a half-inhibitory concentration (IC50) of 2.3 to 226 µM.
Take `O=C(N/N=C/c1cc(O)ccc1O)c1cc2ccccc2[nH]1`: the IC50 lay in the range of 2.3 to 226 µM.
For `O=C(N/N=C/c1ccc(Cl)cc1)c1cc2ccccc2[nH]1`, the IC50 was 2.3 to 226 µM.
The compound `COc1ccc(/C=N/NC(=O)c2cc3ccccc3[nH]2)c(I)c1O` returned an IC50 of 2.3 to 226 µM.
Compound `FC(F)(F)c1ccc(-c2[nH]c3ccccc3c2-c2nc(-c3ccccc3)c(-c3ccccc3)n2-c2ccccc2)cc1` returned an IC50 of 8.3 to 98 µM.
Turning to `O=C(N/N=C/c1ccc(O)cc1)c1cc2ccccc2[nH]1`, the IC50 was 2.3 to 226 µM.
For the compound `Clc1cccc(-c2[nH]c3ccccc3c2-c2nc(-c3ccccc3)c(-c3ccccc3)n2-c2ccccc2)c1`, the 50% inhibitory concentration (IC50) lay within 8.3 to 98 µM.
In turn, `COc1ccc(O)c(/C=N/NC(=O)c2cc3ccccc3[nH]2)c1` displayed an IC50 of 2.3 to 226 µM.
The same measure, in the same setting: the figure for `COc1ccc(-n2c(-c3c(-c4cccc(Br)c4)[nH]c4ccccc34)nc(-c3ccccc3)c2-c2ccccc2)cc1` is 8.3 to 98 µM; for `O=C(N/N=C/c1ccccc1O)c1cc2ccccc2[nH]1` it is 2.3 to 226 µM; for `O=C(N/N=C/c1cccc(O)c1O)c1cc2ccccc2[nH]1` it is 2.3 to 226 µM.
`Brc1ccc(-n2c(-c3c(-c4cccc(Br)c4)[nH]c4ccccc34)nc(-c3ccccc3)c2-c2ccccc2)cc1` showed an IC50 of 8.3 to 98 µM.
Compound `O=C(N/N=C/c1cc(O)cc(O)c1)c1cc2ccccc2[nH]1` registered an IC50 of 2.3 to 226 µM.
The compound `COc1ccc(/C=N/NC(=O)c2cc3ccccc3[nH]2)cc1O` gave an IC50 of 2.3 to 226 µM.
On the same count and under the same terms, as for `COc1cc(/C=N/NC(=O)c2cc3ccccc3[nH]2)ccc1O`, the figure is 2.3 to 226 µM.
Take `O=C(N/N=C/c1c(O)cc(O)cc1O)c1cc2ccccc2[nH]1`: the IC50 was 2.3 to 226 µM.
The compound `O=C(N/N=C/c1ccc(Br)c(F)c1)c1cc2ccccc2[nH]1` showed an IC50 of 2.3 to 226 µM.
The compound `CC(=O)Nc1ccc(-n2c(-c3c(-c4ccccc4)[nH]c4ccc(F)cc34)nc(-c3ccccc3)c2-c2ccccc2)cc1` displayed an IC50 of 8.3 µM.
In turn, `O=C(N/N=C/c1cc(O)c(O)c(O)c1)c1cc2ccccc2[nH]1` showed an IC50 of 2.3 µM. Against the preceding compound, the IC50 is about 3.6-fold lower.
As to `Fc1ccc2[nH]c(-c3ccccc3)c(-c3nc(-c4ccccc4)c(-c4ccccc4)n3-c3ccccc3)c2c1`, the IC50 lay in the range of 8.3 to 98 µM.
`COc1ccc(-n2c(-c3c(-c4ccc(Cl)cc4)[nH]c4ccc(Cl)cc34)nc(-c3ccccc3)c2-c2ccccc2)cc1` displayed an IC50 of 8.3 to 98 µM.

The next test addresses T1, Alpha glucosidase. Briefly: Inhibition of alpha-glucosidase (unknown origin) using p-nitrophenyl-alpha-d-glucopyranoside as substrate preincubated for 5 mins followed by substrate addition measured after 30 mins. In kind it is protein assay.
Turning to `Cc1cs/c(=N\C(=O)c2cc3ccccc3oc2=O)n1-c1cc(Cl)c(Cl)cc1Cl`, the IC50 was 0.1 to 0.15 µM.
Same read-out and setting: the figure for `Cc1cccc(C(=O)/N=c2\scc(C)n2-c2cc(Cl)c(Cl)cc2Cl)c1` is 0.1 to 0.15 µM.
The compound `Cc1cs/c(=N\C(=O)c2ccccc2Cl)n1-c1cc(Cl)c(Cl)cc1Cl` came in with an IC50 of 0.1 to 0.15 µM.
Still for that read-out and setting: as for `COc1ccc(C(=O)/N=c2\scc(C)n2-c2cc(Cl)c(Cl)cc2Cl)cc1`, the figure is 0.1 to 0.15 µM.
The compound `Cc1cs/c(=N\C(=O)c2ccco2)n1-c1cc(Cl)c(Cl)cc1Cl` returned an IC50 of 0.1 to 0.15 µM.

Target in the next test: not listed separately
Briefly: Inhibition of yeast alpha-glucosidase using p-nitrophenyl-alpha-d-glucopyranoside as substrate preincubated for 10 mins followed by substrate addition measured after 20 mins. Further details: species or system Saccharomyces cerevisiae.
`N#CC1=C(N)Oc2c(c(=O)[nH]c3c2ccc2ccccc23)C1c1ccccc1` (stereo unspecified) yielded an IC50 of 10 to 172 µM.
In turn, `COc1cc(C2C(C#N)=C(N)Oc3c2c(=O)[nH]c2c3ccc3ccccc32)ccc1O` (stereo unspecified) registered an IC50 of 10 to 172 µM.
Turning to `CN(C)c1ccc(C2C(C#N)=C(N)Oc3c2c(=O)[nH]c2c3ccc3ccccc32)cc1` (stereo unspecified), the IC50 fell in the range of 10 to 172 µM.
`N#CC1=C(N)Oc2c(c(=O)[nH]c3c2ccc2ccccc23)C1c1ccc(Cl)cc1` (stereo unspecified) returned a 50% inhibitory concentration (IC50) of 10 µM.
Consider `N#CC1=C(N)Oc2c(c(=O)[nH]c3c2ccc2ccccc23)C1c1cccc(O)c1` (stereo unspecified), for which the IC50 was in the range of 10 to 172 µM.
`N#CC1=C(N)Oc2c(c(=O)[nH]c3c2ccc2ccccc23)C1c1ccc(F)cc1` (stereo unspecified) had an IC50 of 15 µM.
On to `COc1ccc(C2C(C#N)=C(N)Oc3c2c(=O)[nH]c2c3ccc3ccccc32)cc1` (stereo unspecified), for which the IC50 was 10 to 172 µM.
`N#CC1=C(N)Oc2c(c(=O)[nH]c3c2ccc2ccccc23)C1c1ccc(Br)cc1` (stereo unspecified) had an IC50 of 10 to 172 µM.
Consider `Cc1ccc(C2C(C#N)=C(N)Oc3c2c(=O)[nH]c2c3ccc3ccccc32)cc1` (stereo unspecified), for which the IC50 lay within 10 to 172 µM.
Compound `N#CC1=C(N)Oc2c(c(=O)[nH]c3c2ccc2ccccc23)C1c1ccncc1` (stereo unspecified) yielded an IC50 of 10 to 172 µM.
In turn, `N#CC1=C(N)Oc2c(c(=O)[nH]c3c2ccc2ccccc23)C1c1cccc([N+](=O)[O-])c1` (stereo unspecified) came in with an IC50 of 10 to 172 µM.
On the same count and under the same terms, the figure for `COc1ccc(C2C(C#N)=C(N)Oc3c2c(=O)[nH]c2c3ccc3ccccc32)cc1OC` (stereo unspecified) is 10 to 172 µM; for `N#CC1=C(N)Oc2c(c(=O)[nH]c3c2ccc2ccccc23)C1c1ccccc1Br` (stereo unspecified) it is 10 to 172 µM.
Take `N#CC1=C(N)Oc2c(c(=O)[nH]c3c2ccc2ccccc23)C1c1ccc(O)cc1` (stereo unspecified): the IC50 was in the range of 10 to 172 µM.
Consider `N#CC1=C(N)Oc2c(c(=O)[nH]c3c2ccc2ccccc23)C1c1cccc(F)c1` (stereo unspecified), for which the IC50 lay in the range of 10 to 172 µM.
In the case of `Cc1ccsc1C1C(C#N)=C(N)Oc2c1c(=O)[nH]c1c2ccc2ccccc21` (stereo unspecified), the IC50 was in the range of 10 to 172 µM.
As to `N#CC1=C(N)Oc2c(c(=O)[nH]c3c2ccc2ccccc23)C1c1ccc([N+](=O)[O-])cc1` (stereo unspecified), the IC50 is 10 to 172 µM.

The next test concerns the target T1, Alpha glucosidase. Briefly: Inhibition of alpha-glucosidase (unknown origin) using p-nitrophenyl-alpha-d-glucopyranoside as substrate preincubated for 10 mins followed by substrate addition measured after 30 mins. In kind it is protein assay.
`O=C(NNC(=S)Nc1cccc([N+](=O)[O-])c1)c1ccc(-c2nnc(-c3ccccc3Cl)o2)cc1` registered an IC50 of 0.4 to 38 µM.
Same read-out and setting: the figure for `O=C(NNC(=S)Nc1ccc(Cl)c(Cl)c1)c1ccc(-c2nnc(-c3ccccc3Cl)o2)cc1` is 0.4 to 38 µM.
On to `CCOC(=O)C1=C(Nc2cccc([N+](=O)[O-])c2)C[C@@H](c2ccc(C)cc2)N(c2cccc([N+](=O)[O-])c2)[C@@H]1c1ccc(C)cc1`, for which the IC50 fell in the range of 2.3 to 29 µM.
`O=C(NNC(=S)Nc1ccc([N+](=O)[O-])cc1)c1ccc(-c2nnc(-c3ccccc3Cl)o2)cc1` gave an IC50 of 0.4 to 38 µM.
On the same count and under the same terms, as for `O=C(NNC(=S)Nc1cccc(F)c1)c1ccc(-c2nnc(-c3ccccc3Cl)o2)cc1`, the figure is 0.4 to 38 µM; as for `O=C(NNC(=S)Nc1ccc(F)cc1)c1ccc(-c2nnc(-c3ccccc3Cl)o2)cc1`, 0.4 to 38 µM.
`O=C(NNC(=S)Nc1ccccc1Cl)c1ccc(-c2nnc(-c3ccccc3Cl)o2)cc1` came in with an IC50 of 0.7 µM.
In the case of `CCOC(=O)C1=C(Nc2cccc(Br)c2)C[C@@H](c2ccc(Cl)cc2)N(c2cccc(Br)c2)[C@@H]1c1ccc(Cl)cc1`, the IC50 was 2.3 µM.
For the compound `O=C(NNC(=S)Nc1ccccc1F)c1ccc(-c2nnc(-c3ccccc3Cl)o2)cc1`, the IC50 turned out to be 0.4 µM.
In the case of `O=C(NNC(=S)Nc1ccc(Br)cc1)c1ccc(-c2nnc(-c3ccccc3Cl)o2)cc1`, the IC50 is 0.4 to 38 µM.
`COc1cccc(NC(=S)NNC(=O)c2ccc(-c3nnc(-c4ccccc4Cl)o3)cc2)c1` came in with an IC50 of 0.4 to 38 µM.
`O=C(NNC(=S)Nc1ccc(Cl)cc1)c1ccc(-c2nnc(-c3ccccc3Cl)o2)cc1` yielded an IC50 of 0.4 to 38 µM.
In turn, `O=C(NNC(=S)Nc1ccccc1Br)c1ccc(-c2nnc(-c3ccccc3Cl)o2)cc1` displayed an IC50 of 0.4 to 38 µM.
`CCOC(=O)C1=C(Nc2cccc(F)c2)C[C@@H](c2ccc(Cl)cc2)N(c2cccc(F)c2)[C@@H]1c1ccc(Cl)cc1` came in with an IC50 of 2.3 to 29 µM.
The same measure, in the same setting: the figure for `CCOC(=O)C1=C(Nc2cccc(Cl)c2)C[C@@H](c2ccc(Cl)cc2)N(c2cccc(Cl)c2)[C@@H]1c1ccc(Cl)cc1` is 2.3 to 29 µM; for `Cc1ccc(NC(=S)NNC(=O)c2ccc(-c3nnc(-c4ccccc4Cl)o3)cc2)cc1` it is 0.4 to 38 µM.
In turn, `COc1ccc(NC(=S)NNC(=O)c2ccc(-c3nnc(-c4ccccc4Cl)o3)cc2)cc1` showed an IC50 of 0.4 to 38 µM.
Still for that read-out and setting: as for `Cc1cccc(NC(=S)NNC(=O)c2ccc(-c3nnc(-c4ccccc4Cl)o3)cc2)c1`, the figure is 0.4 to 38 µM; as for `O=C(NNC(=S)Nc1ccc(C(F)(F)F)cc1)c1ccc(-c2nnc(-c3ccccc3Cl)o2)cc1`, 0.6 µM.
`COc1ccccc1NC(=S)NNC(=O)c1ccc(-c2nnc(-c3ccccc3Cl)o2)cc1` returned an IC50 of 0.4 to 38 µM.
